{"source": "paper PMC6934184", "about": "“Selective DNA-PKcs inhibition extends the therapeutic index of localized radiotherapy and chemotherapy” (The Journal of Clinical Investigation, 2019)", "system": "skin immediately surrounding the tumor", "assay": "γH2AX foci in skin surrounding subcutaneous Calu-6 tumor", "format": "in vivo, mouse", "conditions": "5 hours after 3.3 Gy, 30 mg/kg oral, P = 0.09", "method": "Subcutaneous non–small cell lung cancer xenografts were generated in CD-1 nude or BALB/c nude mice using A549 and Calu-6 cells, respectively, as previously described ([53]). When tumors reached 100 mm^3, mice were randomized into 4 groups (n = 7–9 per group) to receive (a) vehicle (orally) 30 minutes before mock radiation, (b) NU5455 (30 mg/kg orally) 30 minutes before mock radiation, (c) targeted tumor radiation at a single dose of 3.3 or 10 Gy, or (d) NU5455 (30 mg/kg orally) 30 minutes before 3.3 Gy or 10 Gy targeted tumor radiation. […]\nNSCLC subcutaneous xenografts were generated as previously described ( 53). […] Mouse weights and tumor volumes (1/2 x length x width x depth) were measured three times a week.\nTargeted radiotherapy in subcutaneous and orthotopic NSCLC xenograft models When subcutaneous xenografts reached 100 mm3, mice were randomized into four groups (n = 7 - 11/group): (i) N-Methyl-2-pyrrolidone (NMP): 30% Encapsin : PEG400 (1:6:3 v/v/v) vehicle p.o. 30 minutes prior to mock radiation. […] The remaining mice were monitored for tumor growth until the sizes of tumo rs reached 400 mm 3 or up to 38 days after initiation of […]\nTissues were fixed in 4% paraformaldehyde (PFA) and paraffin -embedded. […] The percentage of γH2AX and 53BP1 positive nuclei in lung epithelial cells was quantified manually in normal lung samples across 5 randomly-chosen fields of view per […]"}
{"smiles": "CN(C(=O)CN1CCOCC1)c1ccc2sc3c(-c4cccc5c(=O)cc(N6CC7CCC(C6)O7)oc45)cccc3c2c1", "note": "[NU5455]", "values": [{"measurement": "radiation-induced γH2AX foci, fold augmented with NU5455", "value": 1.6, "unit": "fold"}]}
